One may read the Ki as a dissociation constant, usually derived from enzyme kinetics or from competition with a known ligand.

One experiment concerns the target T1, NET (Rattus norvegicus, UniProt Q9WTR4).
T1 construct: The protocol employed partially purified rat brain cortical homogenates; from tissue; host or cells: rat brain cortex homogenate
The experiment can be described thus: NET competitive binding assay with [3H]nisoxetine, rat brain cortical homogenates. Particulars: partially purified rat brain cortical homogenates, 0° C., 4 h, Ki derived from IC50. How it is done: The protocol employed partially purified rat brain cortical homogenates, [^3H]nisoxetine, incubated 0° C., 4 h; with nonspecific binding determined with added 1 microM of desipramine (DMI) and desipramine as the parallel positive control.

For the next experiment, the target named is T2, 5-HT1A (Homo sapiens, UniProt P08908).
T2 sequence (P08908 1-422): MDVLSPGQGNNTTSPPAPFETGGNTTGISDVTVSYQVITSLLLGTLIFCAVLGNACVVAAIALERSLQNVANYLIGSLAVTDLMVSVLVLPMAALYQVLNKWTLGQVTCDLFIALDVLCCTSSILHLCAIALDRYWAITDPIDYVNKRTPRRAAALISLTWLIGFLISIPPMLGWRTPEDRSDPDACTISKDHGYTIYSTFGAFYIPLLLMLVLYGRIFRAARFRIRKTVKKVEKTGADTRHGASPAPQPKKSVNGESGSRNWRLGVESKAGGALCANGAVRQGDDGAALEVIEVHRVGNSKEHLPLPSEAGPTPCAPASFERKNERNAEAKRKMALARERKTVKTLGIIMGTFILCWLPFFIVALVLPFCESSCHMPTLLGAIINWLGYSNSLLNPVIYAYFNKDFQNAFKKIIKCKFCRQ
The experiment can be described thus: 5-HT1A receptor competitive binding, [3H]8-OH-DPAT. Particulars: partially purified human protein expressed in CHO cells, nonspecific 5-HT, 30° C., 0.5 h, read-out: Ki of (±)-14, 5-HT1A. The source says:
(§1) The evaluation of the competitive binding affinities (Ki values) of (±)-14 for the serotonin and dopamine transporter proteins (SERT and DAT, respectively), the beta-adrenergic receptor, and also serotonin 1a and 2a receptors has been made. The competitive binding profiles of (±)-14 at these other CNS sites are summarized in Table 2, where the assay conditions are defined. […] Thus, compound (±)-14 is considered to have potent NET selectivity (Table 1, Example X) relative to the potencies at the other sites as defined per Table 2.

The target in the next experiment is 5-HT2A (Homo sapiens, UniProt P28223). Kind of experiment: 5-HT2A receptor competitive binding, [3H]Ketanserin. Particulars: partially purified human protein expressed in CHO cells, nonspecific Mianserin, 30° C., 0.5 h, read-out: Ki of (±)-14, 5-HT2A.
Excerpt: as §1

The next experiment concerns the target DAT (Rattus norvegicus, UniProt P23977). The experiment can be described thus: DAT competitive binding, [3H]B-CFT. To be noted: partially purified rat protein, nonspecific GBR-12,909, 0° C., 2 h, read-out: Ki of (±)-14, DAT.
Excerpt: as §1

Another experiment has as its target SERT (Rattus norvegicus, UniProt P31652). The experiment can be described thus: SERT competitive binding, [3H]Citalopram. Particulars: partially purified rat protein, nonspecific Clomipramine, 25° C., 1 h, read-out: Ki of (±)-14, SERT.
Excerpt: as §1

T1 sequence (Q9WTR4 1-597): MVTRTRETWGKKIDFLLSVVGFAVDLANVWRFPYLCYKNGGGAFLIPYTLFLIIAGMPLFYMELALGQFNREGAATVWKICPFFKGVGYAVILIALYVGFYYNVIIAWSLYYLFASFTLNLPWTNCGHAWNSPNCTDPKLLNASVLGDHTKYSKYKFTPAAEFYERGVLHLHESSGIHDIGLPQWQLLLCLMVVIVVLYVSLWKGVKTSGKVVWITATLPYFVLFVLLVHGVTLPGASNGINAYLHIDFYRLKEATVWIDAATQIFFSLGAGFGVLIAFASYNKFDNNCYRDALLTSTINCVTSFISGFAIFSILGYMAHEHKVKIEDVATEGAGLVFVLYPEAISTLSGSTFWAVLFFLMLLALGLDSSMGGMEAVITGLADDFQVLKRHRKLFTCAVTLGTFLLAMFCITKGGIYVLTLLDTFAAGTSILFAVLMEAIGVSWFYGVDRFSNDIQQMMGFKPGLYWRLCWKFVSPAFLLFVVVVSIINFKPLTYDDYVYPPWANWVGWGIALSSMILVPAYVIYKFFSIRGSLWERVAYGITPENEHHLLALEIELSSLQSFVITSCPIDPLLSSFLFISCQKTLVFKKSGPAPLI
Sequence of 5-HT2A (P28223 whole entry): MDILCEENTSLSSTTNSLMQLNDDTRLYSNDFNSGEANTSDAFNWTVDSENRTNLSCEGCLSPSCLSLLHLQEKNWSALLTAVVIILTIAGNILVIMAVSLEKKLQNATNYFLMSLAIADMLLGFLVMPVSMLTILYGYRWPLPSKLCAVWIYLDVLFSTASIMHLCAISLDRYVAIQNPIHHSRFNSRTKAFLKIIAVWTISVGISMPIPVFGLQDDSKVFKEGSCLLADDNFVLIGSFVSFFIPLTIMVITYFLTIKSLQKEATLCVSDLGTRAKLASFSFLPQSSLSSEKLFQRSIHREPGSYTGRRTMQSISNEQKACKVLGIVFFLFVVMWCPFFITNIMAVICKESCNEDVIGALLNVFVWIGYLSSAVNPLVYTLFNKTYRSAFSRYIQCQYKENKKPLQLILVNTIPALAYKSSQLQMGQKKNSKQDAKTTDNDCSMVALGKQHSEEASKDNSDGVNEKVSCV
Sequence of SERT (P31652 whole entry): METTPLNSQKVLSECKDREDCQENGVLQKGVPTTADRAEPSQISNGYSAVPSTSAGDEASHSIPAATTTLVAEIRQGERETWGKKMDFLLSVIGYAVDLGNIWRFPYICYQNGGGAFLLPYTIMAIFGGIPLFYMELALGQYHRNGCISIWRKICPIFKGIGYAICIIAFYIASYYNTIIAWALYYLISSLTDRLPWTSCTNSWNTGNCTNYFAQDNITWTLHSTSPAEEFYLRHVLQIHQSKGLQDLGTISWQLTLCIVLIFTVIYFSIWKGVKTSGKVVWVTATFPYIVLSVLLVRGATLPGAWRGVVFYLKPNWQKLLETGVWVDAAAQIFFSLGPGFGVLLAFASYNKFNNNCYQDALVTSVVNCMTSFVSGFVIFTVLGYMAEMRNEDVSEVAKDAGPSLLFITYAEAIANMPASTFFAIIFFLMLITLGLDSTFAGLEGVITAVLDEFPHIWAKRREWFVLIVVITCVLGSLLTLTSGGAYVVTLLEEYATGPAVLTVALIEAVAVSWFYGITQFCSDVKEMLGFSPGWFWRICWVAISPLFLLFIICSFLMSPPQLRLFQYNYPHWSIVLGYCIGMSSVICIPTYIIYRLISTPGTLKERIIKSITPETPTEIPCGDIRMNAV
Sequence of DAT (P23977 whole entry): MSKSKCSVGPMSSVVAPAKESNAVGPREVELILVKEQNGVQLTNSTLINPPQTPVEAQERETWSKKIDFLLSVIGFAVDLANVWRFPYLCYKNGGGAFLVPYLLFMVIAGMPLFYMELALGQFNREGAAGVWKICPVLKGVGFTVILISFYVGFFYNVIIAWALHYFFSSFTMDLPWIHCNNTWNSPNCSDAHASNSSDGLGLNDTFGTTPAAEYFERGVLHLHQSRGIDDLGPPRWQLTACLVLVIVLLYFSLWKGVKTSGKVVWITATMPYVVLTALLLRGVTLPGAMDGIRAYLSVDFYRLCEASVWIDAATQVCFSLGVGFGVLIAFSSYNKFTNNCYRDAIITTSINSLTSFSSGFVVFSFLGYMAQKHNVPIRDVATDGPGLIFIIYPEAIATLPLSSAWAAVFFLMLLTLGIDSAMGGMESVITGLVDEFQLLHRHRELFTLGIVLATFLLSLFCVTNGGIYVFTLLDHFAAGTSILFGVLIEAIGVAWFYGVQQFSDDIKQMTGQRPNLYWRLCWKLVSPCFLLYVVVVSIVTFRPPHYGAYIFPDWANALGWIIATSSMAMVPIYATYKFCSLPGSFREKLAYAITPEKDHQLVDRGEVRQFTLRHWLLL

On to `COCC1CNCCN1c1nccc2ccccc12` (racemic) [(±)-14, (±)-1-[2′-(Methoxymethyl)piperazin-1′-yl] isoquinoline], for which the Ki on NET was 4.14 nM; on 5-HT1A, over 10000 nM; at 5-HT2A, over 10000 nM; at DAT, 1570 nM; at SERT, 1800 nM. At NET, `FCCCOCC1CNCCN1c1nccc2ccccc12` (racemic) [(±)-37] gave a Ki of 71.5 nM.

On NET, `c1ccc(CC2CNCCN2c2nccc3ccccc23)cc1` (racemic) [Compound 9, (±)-1-[2′-(Benzyl)piperazin-1′-yl]isoquinoline] yielded a Ki of 16.2 nM. In the case of `COCC1CNCCN1c1nc(Cl)cc2ccccc12` (racemic) [Compound 17, (±)-3-Chloro-1-[2′-(methoxymethyl)piperazin-1′-yl]isoquinoline], the Ki on NET is 14.2 nM. Still for that read-out and setting: with `FCCCOC[C@@H]1CNCCN1c1nccc2ccccc12` [(S)-37, (S)-1-[2′-[(3-fluoropropoxy)methyl]piperazin-1′-yl]isoquinoline] the figure was 6.71 nM.

The record behind these values is patent US7887784B2, “1-[(2′-substituted)-piperazin-1′ -yl]-isoquinolines as norepinephrine transporter inhibitor therapeutics and positron emission tomography imaging agents” (University of Montana, priority 2007, dated 2011).
